We go through two compounds from publication doi:10.1101/2025.01.30.635627v1 (biorxiv, 2025).

Each structure is given as a SMILES string. pEC50, pKd: −log10 of the molar value.

The target of assay [1] is T1, GAK (Homo sapiens, UniProt O14976).
T1 sequence (O14976 2-1311): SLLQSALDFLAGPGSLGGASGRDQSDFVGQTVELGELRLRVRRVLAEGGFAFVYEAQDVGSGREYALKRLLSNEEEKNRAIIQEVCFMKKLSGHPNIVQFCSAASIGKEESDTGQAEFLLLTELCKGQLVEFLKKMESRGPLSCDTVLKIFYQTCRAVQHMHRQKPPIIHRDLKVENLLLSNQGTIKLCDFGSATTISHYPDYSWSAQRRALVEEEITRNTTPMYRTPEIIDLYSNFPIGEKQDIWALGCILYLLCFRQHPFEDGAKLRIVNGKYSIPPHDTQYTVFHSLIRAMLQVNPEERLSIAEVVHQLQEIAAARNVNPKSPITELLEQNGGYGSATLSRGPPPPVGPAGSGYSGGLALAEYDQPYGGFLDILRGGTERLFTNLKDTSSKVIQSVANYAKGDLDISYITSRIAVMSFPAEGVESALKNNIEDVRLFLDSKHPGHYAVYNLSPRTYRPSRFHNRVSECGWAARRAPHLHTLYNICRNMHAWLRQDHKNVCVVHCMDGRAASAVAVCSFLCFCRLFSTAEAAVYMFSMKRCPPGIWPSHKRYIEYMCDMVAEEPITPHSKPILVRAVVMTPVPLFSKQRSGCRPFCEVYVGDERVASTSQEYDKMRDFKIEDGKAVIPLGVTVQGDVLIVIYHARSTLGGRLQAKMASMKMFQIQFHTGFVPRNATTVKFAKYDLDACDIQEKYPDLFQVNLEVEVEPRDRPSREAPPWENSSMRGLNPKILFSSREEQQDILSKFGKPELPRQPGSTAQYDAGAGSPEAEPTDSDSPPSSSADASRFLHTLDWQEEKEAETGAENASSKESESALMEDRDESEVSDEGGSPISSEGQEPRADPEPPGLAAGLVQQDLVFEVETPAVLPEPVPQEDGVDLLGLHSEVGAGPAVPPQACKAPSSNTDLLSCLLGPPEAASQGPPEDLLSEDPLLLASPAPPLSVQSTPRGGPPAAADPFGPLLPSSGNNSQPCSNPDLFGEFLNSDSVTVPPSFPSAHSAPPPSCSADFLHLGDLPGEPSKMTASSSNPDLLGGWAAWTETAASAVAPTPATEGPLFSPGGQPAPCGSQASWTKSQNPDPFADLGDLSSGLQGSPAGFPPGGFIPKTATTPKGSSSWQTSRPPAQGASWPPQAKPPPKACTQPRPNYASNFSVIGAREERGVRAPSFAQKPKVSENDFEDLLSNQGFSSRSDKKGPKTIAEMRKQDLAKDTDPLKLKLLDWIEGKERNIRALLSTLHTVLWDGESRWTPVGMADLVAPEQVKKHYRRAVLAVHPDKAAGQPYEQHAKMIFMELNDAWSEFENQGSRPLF
Kind of assay: Kinobead selectivity profiling. The assay is classed as biochemical. The note with it: read-out: K ^app; apparent value; off-target of ERK inhibitor.

Assay [2] concerns the target AAK1 (Homo sapiens, UniProt Q2M2I8). Briefly: Kinobead selectivity profiling. The assay is classed as biochemical. The note with it: read-out: K ^app; apparent value; off-target of ERK inhibitor.
Assay [3] deals with T2, EEF1A2 (Homo sapiens, UniProt Q05639).
T2 sequence (Q05639 2-463): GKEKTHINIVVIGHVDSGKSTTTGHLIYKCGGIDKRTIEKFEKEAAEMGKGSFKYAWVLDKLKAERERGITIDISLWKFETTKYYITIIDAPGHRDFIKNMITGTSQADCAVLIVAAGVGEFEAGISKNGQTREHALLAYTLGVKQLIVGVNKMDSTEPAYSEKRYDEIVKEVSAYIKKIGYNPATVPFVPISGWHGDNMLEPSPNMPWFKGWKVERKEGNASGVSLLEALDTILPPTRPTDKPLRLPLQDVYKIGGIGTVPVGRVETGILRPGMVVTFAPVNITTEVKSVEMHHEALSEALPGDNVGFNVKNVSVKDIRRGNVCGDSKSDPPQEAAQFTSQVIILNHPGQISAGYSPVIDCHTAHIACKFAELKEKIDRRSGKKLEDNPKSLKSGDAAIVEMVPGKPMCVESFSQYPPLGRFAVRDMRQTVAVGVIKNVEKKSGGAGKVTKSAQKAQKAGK
Kind of assay: decryptC competitive reactive cysteine profiling in intact cells, LC-MS/MS. The assay is classed as cell-based. The note with it: covalent; C31; […] h incubation; range over MiaPaCa-2, NCI-H23 and ASPC1 cells.

Sequence of AAK1 (Q2M2I8 whole entry): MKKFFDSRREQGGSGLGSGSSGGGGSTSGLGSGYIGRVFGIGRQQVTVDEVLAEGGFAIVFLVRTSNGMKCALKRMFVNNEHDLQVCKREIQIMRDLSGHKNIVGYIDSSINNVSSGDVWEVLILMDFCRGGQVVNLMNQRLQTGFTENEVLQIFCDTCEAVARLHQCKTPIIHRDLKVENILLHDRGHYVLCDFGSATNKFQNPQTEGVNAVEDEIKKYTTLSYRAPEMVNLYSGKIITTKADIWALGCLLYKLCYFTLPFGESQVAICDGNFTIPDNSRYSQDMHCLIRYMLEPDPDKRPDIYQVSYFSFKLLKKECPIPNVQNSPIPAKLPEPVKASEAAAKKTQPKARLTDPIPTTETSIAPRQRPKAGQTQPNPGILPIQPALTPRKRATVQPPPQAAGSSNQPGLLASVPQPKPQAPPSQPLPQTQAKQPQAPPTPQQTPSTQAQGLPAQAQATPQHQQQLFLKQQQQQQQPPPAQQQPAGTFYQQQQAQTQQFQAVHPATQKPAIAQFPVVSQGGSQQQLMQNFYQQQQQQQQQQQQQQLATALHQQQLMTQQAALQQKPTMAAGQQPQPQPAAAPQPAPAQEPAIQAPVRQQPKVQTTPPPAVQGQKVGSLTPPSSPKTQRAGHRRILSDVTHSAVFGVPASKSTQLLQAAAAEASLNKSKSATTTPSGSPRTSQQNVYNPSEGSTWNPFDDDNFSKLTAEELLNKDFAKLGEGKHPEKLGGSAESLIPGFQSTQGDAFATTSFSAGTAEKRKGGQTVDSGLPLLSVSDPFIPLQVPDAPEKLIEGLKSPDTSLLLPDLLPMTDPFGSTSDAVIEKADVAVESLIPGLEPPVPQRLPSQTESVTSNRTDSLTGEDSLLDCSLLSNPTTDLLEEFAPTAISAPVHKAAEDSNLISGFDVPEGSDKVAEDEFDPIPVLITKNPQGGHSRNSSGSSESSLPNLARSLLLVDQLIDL

Consider `Cn1nccc1Nc1nccc(-c2cc3c(s2)C(C)(C)N(CCN2CCOCC2)C3=O)n1` [Temuterkib], for which the pKd in assay [1] was 6.81; in assay [2], 7.96. In assay [3], `C=C(F)C(=O)N1CCN(c2nc(OC[C@@H]3CCCN3C)nc3c2CCN(c2cccc4cccc(Cl)c24)C3)C[C@@H]1CC#N` [Adagrasib] showed a pEC50 of 5.52 to 6.00.
